Experimental data from paper PMC8775252, “Characterization of Alternaria porri causing onion purple blotch and its antifungal compound magnolol identified from Caryodaphnopsis baviensis” (PLoS ONE, 2022).
≈ marks a conversion by molar mass, not a printed value. Read-outs that look alike come from different tables or passages of the source.

Assays:
OXPHOS complex I = format: biochemical
OXPHOS complex V = OXPHOS complex V (Bos taurus, UniProt P00829+P19483); experiment: MitoTox Complete OXPHOS Activity Assay; format: biochemical
Alternaria porri [1] = experiment: microbe, parasite or virus in culture; format: cell-based; conditions: 72 h, 3 days, 25°C
Alternaria brassicicola = experiment: microbe, parasite or virus in culture; format: cell-based; conditions: 72 h, 3 days, 25°C
Botrytis cinerea = experiment: microbe, parasite or virus in culture; format: cell-based; conditions: 72 h, 3 days, 25°C
Colletotrichum cocodes = experiment: microbe, parasite or virus in culture; format: cell-based; conditions: 72 h, 3 days, 25°C
Fusarium oxysporum = experiment: microbe, parasite or virus in culture; format: cell-based, Fusarium oxysporum f. sp. lycopersici; conditions: 72 h, 3 days, 25°C
Magnaporthe oryzae = experiment: microbe, parasite or virus in culture; format: cell-based; conditions: Pyricularia oryzae, 72 h; 3 days, 25°C
Phytophthora infestans = experiment: microbe, parasite or virus in culture; format: cell-based; conditions: 72 h, 3 days, 25°C
OXPHOS complex II = OXPHOS complex II (Bos taurus, UniProt P31039+P35720+Q3T189+Q95123); experiment: biochemical
Alternaria porri [2] = experiment: microbe, parasite or virus in culture; format: cell-based
Alternaria porri [3] = experiment: microbe, parasite or virus in culture; format: cell-based; remark: listed apart in the source
OXPHOS complex III = OXPHOS complex III (Bos taurus, UniProt P00125+P00157+P13272); format: biochemical
OXPHOS complex IV = OXPHOS complex IV (Bos taurus, UniProt P00396+P68530); experiment: biochemical
onion plants = conditions: in vivo
[4] = in vivo, cited from earlier work
[5] = system: onion purple blotch (Alternaria porri); format: in vivo, Allium cepa L.; conditions: sprayed at 100 μg/ml, 5 dpi

OXPHOS complex II, sequence (Q95123 56-158): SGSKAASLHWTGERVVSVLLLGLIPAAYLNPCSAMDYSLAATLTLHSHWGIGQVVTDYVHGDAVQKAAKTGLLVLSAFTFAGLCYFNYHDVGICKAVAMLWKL
OXPHOS complex II, sequence (P31039 44-665): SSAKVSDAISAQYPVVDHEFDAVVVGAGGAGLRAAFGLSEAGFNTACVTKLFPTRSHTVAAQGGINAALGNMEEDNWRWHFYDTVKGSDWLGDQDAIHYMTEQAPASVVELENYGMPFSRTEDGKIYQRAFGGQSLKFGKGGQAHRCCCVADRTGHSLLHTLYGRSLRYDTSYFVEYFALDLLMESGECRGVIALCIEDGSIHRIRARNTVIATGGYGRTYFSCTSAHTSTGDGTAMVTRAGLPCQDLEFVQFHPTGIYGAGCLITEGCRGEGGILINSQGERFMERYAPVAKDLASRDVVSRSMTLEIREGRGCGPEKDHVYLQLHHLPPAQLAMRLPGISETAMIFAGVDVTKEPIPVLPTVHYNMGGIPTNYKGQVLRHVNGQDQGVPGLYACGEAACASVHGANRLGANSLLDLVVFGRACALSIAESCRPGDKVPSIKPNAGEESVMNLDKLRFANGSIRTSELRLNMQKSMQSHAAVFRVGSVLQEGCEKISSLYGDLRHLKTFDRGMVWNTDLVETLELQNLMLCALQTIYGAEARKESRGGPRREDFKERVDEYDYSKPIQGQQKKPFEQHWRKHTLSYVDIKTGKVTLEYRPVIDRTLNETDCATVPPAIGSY
OXPHOS complex II, sequence (P35720 30-169): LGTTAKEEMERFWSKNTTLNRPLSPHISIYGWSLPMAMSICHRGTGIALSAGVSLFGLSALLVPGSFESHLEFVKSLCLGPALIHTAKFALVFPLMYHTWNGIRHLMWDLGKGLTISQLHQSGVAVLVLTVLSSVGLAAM
OXPHOS complex II, sequence (Q3T189 29-280): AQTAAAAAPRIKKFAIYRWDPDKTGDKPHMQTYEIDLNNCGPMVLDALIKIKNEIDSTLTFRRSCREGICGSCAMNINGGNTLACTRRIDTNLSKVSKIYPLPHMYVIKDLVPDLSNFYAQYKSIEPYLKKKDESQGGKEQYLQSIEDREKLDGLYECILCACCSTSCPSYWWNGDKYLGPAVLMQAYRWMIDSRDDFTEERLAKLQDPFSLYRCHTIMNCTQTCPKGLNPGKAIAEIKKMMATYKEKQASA

C=C(C)[C@H]1Cc2c(ccc3c2O[C@@H]2COc4cc(OC)c(OC)cc4[C@@H]2C3=O)O1 [rotenone, reference compound]
effect on complex I activity (OXPHOS complex I): suppressed each complex activity in a concentration-dependent manner

CC[C@H]1/C=C/C=C/C[C@@H](C)[C@H](O)[C@@](C)(O)C(=O)[C@@H](C)[C@H](O)[C@@H](C)C(=O)[C@@H](C)[C@H](O)[C@@H](C)/C=C/C(=O)O[C@@H]2[C@H](C)[C@H](CC1)O[C@]1(CC[C@H](C)[C@H](C[C@@H](C)O)O1)[C@H]2C [oligomycin, reference compound]
effect on complex V activity (OXPHOS complex V; result in words, S6 Fig): suppressed each complex activity in a concentration-dependent manner

C[C@@H]1C[C@@H]([C@H](O)CC2CC(=O)NC(=O)C2)C(=O)[C@@H](C)C1 [Cycloheximide, cycloheximide, reference compound]
MIC (Alternaria porri [1]): 6.3 µg/mL (≈ 22.4 µM) | MIC (Alternaria brassicicola): 6.3 µg/mL (≈ 22.4 µM) | MIC (Botrytis cinerea): 50 µg/mL (≈ 178 µM) | MIC (Colletotrichum cocodes): 1.6 µg/mL (≈ 5.69 µM) | MIC (Fusarium oxysporum): 200 µg/mL (≈ 711 µM) | MIC (Magnaporthe oryzae): 6.3 µg/mL (≈ 22.4 µM) | MIC (Phytophthora infestans): 1.6 µg/mL (≈ 5.69 µM)

O=C(CC(=O)C(F)(F)F)c1cccs1 [TTFA, thenoyltrifluoroacetone, reference compound]
effect on complex II activity (OXPHOS complex II): suppressed each complex activity in a concentration-dependent manner

C=CCc1ccc(O)c(-c2cc(CC=C)ccc2O)c1 [magnolol, 5,5’-di-2-propenyl-1,1’-biphenyl-2,2’-diol]
inhibitory activity on mycelial growth compared with mancozeb (Alternaria porri [2]): more potent than that of the broad-spectrum fungicide mancozeb | IC50 (Alternaria porri [2]; Alternaria porri, 168 h, read-out: IC50, mycelial growth): 5.4 µg/mL (≈ 20.3 µM) | MIC (Alternaria porri [2]; Alternaria porri, read-out: MIC, mycelial growth completely inhibited): 100 µg/mL (≈ 375 µM) | IC50 (Alternaria porri [3]; 10 h, read-out: IC50, spore germination): 4.5 µg/mL (≈ 16.9 µM) | MIC (Alternaria porri [3]; read-out: MIC, spore germination completely inhibited): 11 µg/mL (≈ 41.3 µM) | MIC (Alternaria porri [1]): 6.3 µg/mL (≈ 23.7 µM) | MIC (Alternaria brassicicola): 6.3 µg/mL (≈ 23.7 µM) | MIC (Botrytis cinerea): 25 µg/mL (≈ 93.9 µM) | MIC (Colletotrichum cocodes): 6.3 µg/mL (≈ 23.7 µM) | MIC (Fusarium oxysporum): 25 µg/mL (≈ 93.9 µM) | MIC (Magnaporthe oryzae): 3.1 µg/mL (≈ 11.6 µM) | MIC (Phytophthora infestans): > 100 µg/mL | activity of complex I (OXPHOS complex I): 78% | effect on complex I activity (OXPHOS complex I): decreased by the magnolol treatment in a concentration-dependent manner | IC50 (OXPHOS complex II): 8.3 µM | IC50 (OXPHOS complex III; read-out: IC50, complex III activity): 19.4 µM | IC50 (OXPHOS complex IV): 10.9 µM | IC50 (OXPHOS complex V; read-out: IC50, complex V activity): 4.7 µM | phytotoxic symptoms (onion plants): no phytotoxic symptoms | excreted in the feces and urine ([4]; po): > 90% | oral dose remaining circulating in the free form [4]: 1%

CCCCCC[C@H]1C(=O)O[C@H](C)[C@H](NC(=O)c2cccc(NC=O)c2O)C(=O)O[C@@H](C)[C@@H]1OC(=O)CC(C)C [antimycin A, reference compound]
effect on complex III activity (OXPHOS complex III): suppressed each complex activity in a concentration-dependent manner

mancozeb
disease control value [5]: 95%
